Data reported in the supplement of paper PMC10627819.

What was measured:
S. pneumoniae D39V [1] = experiment: fitness (endpoint OD595 vs no drug) (fraction); higher = more growth
Outline: (§1)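 Fitness was measured as bacterial growth in 384-well plates inoculated at OD595 0.01 (30 µl, or 55 µl for S. pneumoniae). Media were TSB, LB Lennox or CY, at 37 °C. OD595 was read every 30 min for 14 h and background-subtracted against the first reading. Fitness is OD595 at the transition into stationary phase divided by the robust mean of no-drug control wells, capped at 1.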

S. aureus DSM 20231 [2] = experiment: as above
Outline: as §1

S. aureus Newman [3] = experiment: as above
Outline: as §1

B. subtilis 168 [4] = experiment: as above
Outline: as §1

S. pneumoniae D39V [5] = experiment: Bliss interaction score (quartile over a dose matrix) (fitness difference); higher = more antagonism (negative = synergy)
Outline: (§2)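 Values were capped at 1 after dividing OD595 at stationary-phase entry by the plate's robust no-drug mean. This ratio is fitness, and single-drug fitness was inferred from the combination data. The Bliss score is observed minus product-expected fitness, given as quartiles over technical, biological and donor/recipient replicates.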

S. aureus DSM 20231 [6] = experiment: as above
Outline: as §2

S. aureus Newman [7] = experiment: as above
Outline: as §2

B. subtilis 168 [8] = experiment: as above
Outline: as §2
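Wherever Bliss interaction score (quartile over a dose matrix) is given: first quartile when negative (synergy) and third quartile when positive (antagonism).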

CCCCCCCCCC(=O)N[C@@H](Cc1c[nH]c2ccccc12)C(=O)N[C@H](CC(N)=O)C(=O)N[C@@H](CC(=O)O)C(=O)N[C@@H]1C(=O)NCC(=O)N[C@@H](CCCN)C(=O)N[C@@H](CC(=O)O)C(=O)N[C@H](C)C(=O)N[C@@H](CC(=O)O)C(=O)NCC(=O)N[C@H](CO)C(=O)N[C@@H]([C@H](C)CC(=O)O)C(=O)N[C@@H](CC(=O)c2ccccc2N)C(=O)O[C@@H]1C [Daptomycin] + CN1C2=CC=CC=C2N=C3C1=CC=CC3=O [Pyocyanin]
fitness
Conditions | first compound 0.125 µg/mL | first compound 0.25 µg/mL | first compound 0.5 µg/mL | first compound 1 µg/mL | first compound 2 µg/mL | first compound 4 µg/mL
B. subtilis 168 [4], partner 1.25 µg/mL | 0.868 | 0.89 | 0.846 | – | – | –
B. subtilis 168 [4], partner 2.5 µg/mL | 0.846 | 0.817 | 0.803 | – | – | –
B. subtilis 168 [4], partner 5 µg/mL | 0.718 | 0.755 | 0.679 | – | – | –
S. aureus DSM 20231 [2], partner 1.25 µg/mL | – | – | 0.891 | 0.969 | 0.727 | –
S. aureus DSM 20231 [2], partner 2.5 µg/mL | – | – | 0.936 | 0.974 | 0.737 | –
S. aureus DSM 20231 [2], partner 5 µg/mL | – | – | 0.627 | 0.707 | 0.639 | –
S. aureus Newman [3], partner 1.25 µg/mL | 0.871 | 0.874 | 0.904 | – | – | –
S. aureus Newman [3], partner 2.5 µg/mL | 0.839 | 0.857 | 0.855 | – | – | –
S. pneumoniae D39V [1], partner 0.325 µg/mL | – | – | – | ≥ 1 | ≥ 1 | 0.994
S. pneumoniae D39V [1], partner 0.65 µg/mL | – | – | – | 0.905 | 0.944 | 0.931
S. pneumoniae D39V [1], partner 1.3 µg/mL | – | – | – | 0.615 | 0.604 | 0.582

fitness, one replicate
Conditions | partner 1.25 µg/mL | partner 2.5 µg/mL | partner 5 µg/mL
B. subtilis 168 [4], first compound 1 µg/mL | 0.697 | 0.652 | 0.552
S. aureus DSM 20231 [2], first compound 0.125 µg/mL | 0.798 | 0.814 | 0.577
S. aureus DSM 20231 [2], first compound 0.25 µg/mL | 0.86 | 0.938 | 0.581

Conditions | Bliss interaction score
B. subtilis 168 [8] | -0.0565
S. aureus DSM 20231 [6] | -0.0886
S. aureus Newman [7] | 0.0899
S. pneumoniae D39V [5] | -0.0802

CCCCCCCCCC(=O)N[C@@H](Cc1c[nH]c2ccccc12)C(=O)N[C@H](CC(N)=O)C(=O)N[C@@H](CC(=O)O)C(=O)N[C@@H]1C(=O)NCC(=O)N[C@@H](CCCN)C(=O)N[C@@H](CC(=O)O)C(=O)N[C@H](C)C(=O)N[C@@H](CC(=O)O)C(=O)NCC(=O)N[C@H](CO)C(=O)N[C@@H]([C@H](C)CC(=O)O)C(=O)N[C@@H](CC(=O)c2ccccc2N)C(=O)O[C@@H]1C [Daptomycin] + CN(N=O)C(=O)N[C@@H](C=O)[C@@H](O)[C@H](O)[C@H](O)CO [Streptozotocin]
fitness
Conditions | partner 0.15 µg/mL | partner 0.3 µg/mL | partner 0.6 µg/mL | partner 1.2 µg/mL | partner 2.4 µg/mL | partner 4.8 µg/mL
B. subtilis 168 [4], first compound 0.25 µg/mL | 0.89 | 0.914 | 0.969 | – | – | –
B. subtilis 168 [4], first compound 0.5 µg/mL | 0.835 | 0.761 | 0.768 | – | – | –
S. aureus DSM 20231 [2], first compound 0.5 µg/mL | 0.817 | 0.778 | 0.732 | – | – | –
S. aureus DSM 20231 [2], first compound 1 µg/mL | 0.93 | 0.799 | 0.744 | – | – | –
S. aureus DSM 20231 [2], first compound 2 µg/mL | 0.871 | 0.818 | 0.748 | – | – | –
S. aureus Newman [3], first compound 0.125 µg/mL | 0.945 | 0.805 | 0.636 | – | – | –
S. aureus Newman [3], first compound 0.25 µg/mL | 0.957 | 0.855 | 0.594 | – | – | –
S. aureus Newman [3], first compound 0.5 µg/mL | 0.969 | 0.807 | 0.627 | – | – | –
S. pneumoniae D39V [1], first compound 1 µg/mL | – | – | – | 0.94 | 0.939 | 0.918
S. pneumoniae D39V [1], first compound 2 µg/mL | – | – | – | 0.935 | 0.95 | 0.884
S. pneumoniae D39V [1], first compound 4 µg/mL | – | – | – | 0.968 | 0.942 | 0.923

fitness, one replicate
Conditions | partner 0.15 µg/mL | partner 0.3 µg/mL | partner 0.6 µg/mL
B. subtilis 168 [4], first compound 0.125 µg/mL | 0.889 | 0.968 | 0.935
B. subtilis 168 [4], first compound 1 µg/mL | 0.658 | 0.674 | 0.669
S. aureus DSM 20231 [2], first compound 0.125 µg/mL | 0.795 | 0.761 | 0.645
S. aureus DSM 20231 [2], first compound 0.25 µg/mL | 0.883 | 0.764 | 0.656

Conditions | Bliss interaction score
B. subtilis 168 [8] | -0.0562
S. aureus DSM 20231 [6] | 0.0436
S. aureus Newman [7] | 0.0468
S. pneumoniae D39V [5] | 0.0898

CCCCCCCCCC(=O)N[C@@H](Cc1c[nH]c2ccccc12)C(=O)N[C@H](CC(N)=O)C(=O)N[C@@H](CC(=O)O)C(=O)N[C@@H]1C(=O)NCC(=O)N[C@@H](CCCN)C(=O)N[C@@H](CC(=O)O)C(=O)N[C@H](C)C(=O)N[C@@H](CC(=O)O)C(=O)NCC(=O)N[C@H](CO)C(=O)N[C@@H]([C@H](C)CC(=O)O)C(=O)N[C@@H](CC(=O)c2ccccc2N)C(=O)O[C@@H]1C [Daptomycin] + CN[C@@H]1[C@H](O)[C@H](NC)[C@H]2O[C@@]3(O)C(=O)C[C@@H](C)O[C@H]3O[C@@H]2[C@H]1O [Spectinomycin]
fitness
Conditions | first compound 0.125 µg/mL | first compound 0.25 µg/mL | first compound 0.5 µg/mL | first compound 1 µg/mL | first compound 2 µg/mL | first compound 4 µg/mL
B. subtilis 168 [4], partner 2 µg/mL | 0.934 | 0.979 | 0.836 | – | – | –
B. subtilis 168 [4], partner 4 µg/mL | 0.964 | 0.946 | 0.813 | – | – | –
B. subtilis 168 [4], partner 8 µg/mL | 0.863 | 0.944 | 0.835 | – | – | –
S. aureus DSM 20231 [2], partner 4 µg/mL | – | – | ≥ 1 | 0.978 | 0.964 | –
S. aureus DSM 20231 [2], partner 8 µg/mL | – | – | ≥ 1 | 0.96 | 0.946 | –
S. aureus DSM 20231 [2], partner 16 µg/mL | 0.852 | 0.872 | 0.905 | 0.931 | 0.866 | –
S. aureus Newman [3], partner 4 µg/mL | 0.963 | 0.932 | 0.924 | – | – | –
S. aureus Newman [3], partner 8 µg/mL | 0.991 | 0.983 | 0.952 | – | – | –
S. aureus Newman [3], partner 16 µg/mL | 0.915 | 0.917 | 0.905 | – | – | –
S. pneumoniae D39V [1], partner 4 µg/mL | – | – | – | 0.92 | 0.943 | 0.941
S. pneumoniae D39V [1], partner 8 µg/mL | – | – | – | 0.817 | 0.856 | 0.847
S. pneumoniae D39V [1], partner 16 µg/mL | – | – | – | 0.554 | 0.569 | 0.546

fitness, one replicate
Conditions | partner 2 µg/mL | partner 4 µg/mL | partner 8 µg/mL | partner 32 µg/mL | partner 64 µg/mL
B. subtilis 168 [4], first compound 1 µg/mL | 0.704 | 0.71 | 0.751 | – | –
S. aureus DSM 20231 [2], first compound 0.125 µg/mL | – | 0.935 | 0.988 | 0.767 | 0.0669
S. aureus DSM 20231 [2], first compound 0.25 µg/mL | – | 0.977 | 0.998 | 0.7 | 0.0927
S. aureus DSM 20231 [2], first compound 0.5 µg/mL | – | – | – | 0.745 | 0.079
S. aureus Newman [3], first compound 0.125 µg/mL | – | – | – | 0.595 | 0.0775
S. aureus Newman [3], first compound 0.25 µg/mL | – | – | – | 0.63 | 0.0532
S. aureus Newman [3], first compound 0.5 µg/mL | – | – | – | 0.626 | 0.0675

Conditions | Bliss interaction score
B. subtilis 168 [8] | 0.0649
S. aureus DSM 20231 [6] | 0.0629
S. aureus Newman [7] | 0.0696
S. pneumoniae D39V [5] | 0.0673
